According to patent US9987361B1, “Compositions and method for sustained drug delivery by active transdermal technology” (Noven Pharmaceuticals, Inc., priority 2014, dated 2018):

Legend:
[1] = test system: microchannels in skin made by a microneedle device; experiment: In vivo impedance after microneedle pretreatment; settings: swine; DPG formulated with saturated compound, applied after microneedle pretreatment; FIG. 5
Protocol: Impedance (Z) was assessed in vivo in swine as a measure of skin integrity using the compositions described above. Microneedle devices were inserted into swine with an applicator and removed, followed by application of the formulations. Impedance was measured before and after microneedle pretreatment, and during application of the formulations (formulations were removed and reapplied at every time point).
FIG. 5 illustrates the in vivo impedance measured before and after microneedle pretreatment for the five formulations.

microchannels = settings: reported in the literature; cited from earlier work
[2] = test system: microchannels in skin made by a microneedle device; experiment: In vivo transepidermal water loss (TEWL) after microneedle pretreatment; settings: swine; DPG formulated with saturated compound, applied after microneedle pretreatment; FIG. 4
Protocol: Transepidermal water loss (TEWL) was assessed in vivo in swine as an indicator of skin integrity before and after microneedle pretreatment, using dipropylene glycol (DPG) formulated with saturated (i) cholesterol, (ii) curcumin, (iii) glycyrrhizin, (iv) diclofenac, or (v) no anti-healing compound. The diclofenac formulation was used as a positive control, and the formulation with no anti-healing compound was used as a negative control. Microneedle devices were inserted into swine skin with an applicator and removed, followed by application of the formulations. TEWL was measured before and after microneedle pretreatment, and during application of the formulations (formulations were removed and reapplied at every time point).
FIG. 4 illustrates the in vivo transepidermal water loss measured before and after microneedle pretreatment for the five formulations.

Row | Compound | impedance (Z) [1] | lifetime of microchannels (microchannels) | transepidermal water loss (TEWL), sustained level [2]
1 | O=C(O)Cc1ccccc1Nc1c(Cl)cccc1Cl [diclofenac, reference compound] | low impedance throughout the study | extend the lifetime of microchannels | highest sustained level of TEWL
2 | COc1cc(/C=C/C(=O)CC(=O)/C=C/c2ccc(O)c(OC)c2)ccc1O [curcumin] | low impedance throughout the study | – | higher sustained levels of TEWL than the formulation with no anti-healing compound
3 | CC(C)CCC[C@@H](C)[C@H]1CC[C@H]2[C@@H]3CC=C4C[C@@H](O)CC[C@]4(C)[C@H]3CC[C@]12C [cholesterol] | low impedance throughout the study | – | higher sustained levels of TEWL than the formulation with no anti-healing compound
4 | CC1(C)[C@@H](O[C@H]2O[C@H](C(=O)O)[C@@H](O)[C@H](O)[C@H]2O[C@@H]2O[C@H](C(=O)O)[C@@H](O)[C@H](O)[C@H]2O)CC[C@]2(C)[C@H]3C(=O)C=C4[C@@H]5C[C@@](C)(C(=O)O)CC[C@]5(C)CC[C@@]4(C)[C@]3(C)CC[C@@H]12 [glycyrrhizin] | low impedance throughout the study | – | higher sustained levels of TEWL than the formulation with no anti-healing compound
